Experimental data as given in patent publication EP0949243A1, “OPTICALLY ACTIVE METHOXYIMINOACETAMIDE DERIVATIVES, PROCESS FOR THE PREPARATION OF THEM, INTERMEDIATES THEREFOR, AND PESTICIDES CONTAINING THEM AS THE ACTIVE INGREDIENT” (MITSUBISHI CHEMICAL CORPORATION, priority 1996, dated 1998).
Read-outs that look alike come from different tables or passages of the source.

Key:
[1] = test system: wheat powdery mildew fungus (Erysiphe graminis); assay: Preventive activity on wheat powdery mildew (Test Example 1); assay type: in vivo; details: foliar application on wheat, wettable powder
[2] = test system: wheat brown rust fungus (Puccinia recondita); assay: Preventive activity on wheat brown rust (Test Example 2); assay type: in vivo; details: 10 ppm, foliar application on wheat, wettable powder
[3] = test system: CD rats (female); assay: Oral acute toxicity test using rats (Test Example 3); details: for LC50 value: CD rats (female), single oral administration, suspended in tragacanth gum aqueous solution
Description: Each of the compound No. 2 and its racemate No. 2r was suspended in tragacanth gum aqueous solution and applied to CD rats (female) by single oral administration in a dosage of 300, 600, 1,200, 2,500 or 5,000 mg/kg to obtain its LC50 value.

[4] = test system: wheat powdery mildew fungus (Erysiphe graminis f. sp. tritici); assay: Effect of combined application for controlling wheat powdery mildew (Test Example 5); assay type: in vivo; details: single chemical
[5] = test system: wheat brown rust fungus (Puccinia recondita); assay: Effect of combined application for controlling wheat brown rust (Test Example 6); assay type: in vivo; details: single chemical
[6] = test system: tomato late blight fungus (Phytophthora infestans); assay type: in vivo; details: single chemical
[7] = test system: cucumber gray mold fungus (Botrytis cinerea); assay: Effect of combined application for controlling cucumber gray mold (Test Example 8); assay type: in vivo; details: single chemical, from diameter of lesion

Compound: CNC(=O)C(=NOC)c1ccccc1C=NOC(C)c1cccc(C(F)(F)F)c1 (racemic) [2r, N-methyl-2-[2-{1-(3-trifluoromethylphenyl)ethoxyiminomethyl}phenyl]-2-methoxyiminoacetamide]
- Preventive value (%) ([1]; 2.0 ppm): 64%
- Preventive value (%) ([1]; 4.0 ppm): 96%
- Preventive value [2]: 32
- LC50 value [3]: 1,784 mg/kg
- mortality ([3]; single oral dosage of 300 mg/kg): no mortality
- cases died ([3]; single oral dosage of 600 mg/kg): 1/5
- cases died ([3]; single oral dosage of 1,200 mg/kg): 1/5
- cases died ([3]; single oral dosage of 2,500 mg/kg): 4/5
- cases died ([3]; single oral dosage of 5,000 mg/kg): 4/5

Compound: CC1(C)CCC(Cc2ccc(Cl)cc2)C1(O)Cn1cncn1 (racemic) [Known compound a, (1RS,5RS;1RS,5SR)-5-(4-chlorobenzyl)-2,2-dimethyl-1-(1H-1,2,4-triazol-1-ylmethyl)cyclopentanol]
- Preventive value (%) ([4]; 0.2 ppm): 35%
- Preventive value (%) ([4]; 1 ppm): 80%
- Preventive value (%) ([5]; 0.2 ppm): 25%
- Preventive value (%) ([5]; 1 ppm): 81%

Compound: CC(C)(C)C(O)(CCc1ccc(Cl)cc1)Cn1cncn1 (racemic) [Known compound b, (RS)-1-p-chlorophenyl-4,4-dimethyl-3-(1H-1,2,4-triazol-1-ylmethyl)pentan-3-ol]
- Preventive value (%) ([4]; 0.2 ppm): 23%
- Preventive value (%) ([4]; 1 ppm): 65%
- Preventive value (%) ([5]; 0.2 ppm): 22%
- Preventive value (%) ([5]; 1 ppm): 75%

Compound: CC(Cc1ccc(C(C)(C)C)cc1)CN1C[C@@H](C)O[C@@H](C)C1 (mixture of isomers) [Known compound c, (±)-cis-4-[3-(4-tert-butylphenyl)-2-methylpropyl]-2,6-dimethylmorpholine]
- Preventive value (%) ([4]; 2.4 ppm): 18%
- Preventive value (%) ([4]; 12 ppm): 50%
- Preventive value (%) ([5]; 2.4 ppm): 0%
- Preventive value (%) ([5]; 12 ppm): 0%

Compound: CNC(=O)C(=NOC)c1ccccc1C=NO[C@H](C)c1cccc(C(F)(F)F)c1 (single isomer, unassigned) [compound 1]
- Preventive value (%) ([1]; 2.0 ppm): 6%
- Preventive value (%) ([1]; 4.0 ppm): 51%
- Preventive value [2]: 0

Compound: CNC(=O)C(=NOC)c1ccccc1C=NO[C@@H](C)c1cccc(C(F)(F)F)c1 (single isomer, unassigned) [compound 2]
- Preventive value (%) ([1]; 2.0 ppm): 97%
- Preventive value (%) ([1]; 4.0 ppm): 100%
- Preventive value [2]: 99
- Preventive value (%) ([4]; 0.2 ppm): 25%
- Preventive value (%) ([4]; 1 ppm): 87%
- Preventive value (%) ([5]; 0.2 ppm): 2%
- Preventive value (%) ([5]; 1 ppm): 48%
- Preventive value (%) ([6]; 0.4 ppm): 23%
- Preventive value (%) ([6]; 2 ppm): 73%
- Preventive value (%) ([6]; 10 ppm): 95%
- Preventive value (%) ([7]; 0.4 ppm): 13%
- Preventive value (%) ([7]; 2 ppm): 53%
- Preventive value (%) ([7]; 10 ppm): 94%
- LC50 value [3]: ≥ 5,000 mg/kg

Compound: CCCN(CCOc1c(Cl)cc(Cl)cc1Cl)C(=O)n1ccnc1 [Known compound d, N-propyl-N-[2-(2,4,6-trichlorophenoxy)ethyl]imidazole-1-carboxamide]
- Preventive value (%) ([5]; 2.4 ppm): 0%
- Preventive value (%) ([5]; 12 ppm): 19%
- Preventive value (%) ([6]; 0.2 ppm): 62%
- Preventive value (%) ([6]; 1 ppm): 79%
- Preventive value (%) ([6]; 5 ppm): 95%

Compound: O=[N+]([O-])c1cc(C(F)(F)F)c(Cl)c([N+](=O)[O-])c1Nc1ncc(C(F)(F)F)cc1Cl [Known compound f]
- Preventive value (%) ([7]; 0.2 ppm): 52%
- Preventive value (%) ([7]; 1 ppm): 68%
- Preventive value (%) ([7]; 5 ppm): 98%
